Experimental data reported in patent US12729377B2, “RNAi agents and compositions for inhibiting expression of angiopoietin-like 3 (ANGPTL3), and methods of use” (Arrowhead Pharmaceuticals, Inc., priority 2017, dated 2026).
In the oligonucleotide strings, read from the 5' end, every base follows the letter of its sugar. An asterisk marks phosphorothioate; unmarked linkages are phosphodiester. Other units and linkages are bracketed, terminal groups are in braces. A string of capitals states the bases alone. {NAG37} = tridentate N-acetyl-galactosamine targeting ligand, structure (NAG37)s; [invAb] = inverted abasic unit; m = 2'-O-methyl; f = 2'-fluoro

System: ANGPTL3 gene
Assay: Example 11: dose response, serum total cholesterol in mice
Format: in vivo, C57bl/6 mice
Protocol: To assess the dose response of ANGPTL3 RNAi agent AD05488, six- to eight-week-old female C57bl/6 mice were used. Pre-dose serum samples were taken at day −1 after a four hour fast. At day 1, each mouse was given a single subcutaneous administration of 200 μl containing the respective mg/kg dose of an ANGPTL3 RNAi agent in D5W (dextrose in 5% water), or control (D5W) with no RNAi agent, according to the dosing groups recited in Table 53:
The RNAi agent tested (AD05488) included a modified sequence and an N-acetyl-galactosamine-containing targeting ligand conjugated to the 5′ terminal end of the sense strand. (See Tables 3, 4, and 5 for modified sequences and targeting ligand structures). The injections were performed between the skin and muscle (i.e. subcutaneous injections) into the loose skin over the neck and shoulder area. Four (4) mice in each group were tested (n=4). Serum was collected on days 8, 15, 22, and 29. Mice were fasted for four hours prior to each collection. ANGPTL3 protein levels in serum were measured by ELISA assay (R&D Systems), according to the manufacturer's recommendations. Triglycerides, total cholesterol, high-density lipoprotein (HDL), and low-density lipoprotein (LDL) in serum were measured on a Cobas® Integra 400 (Roche Diagnostics), according to the manufacturer's recommendations.
The ANGPTL3 protein levels, triglyceride levels, total cholesterol levels, HDL levels, and LDL levels for each animal were normalized. For normalization, the level of ANGPTL3 protein, triglyceride, HDL, and total cholesterol, respectively, for each animal at a time point, was divided by the pre-treatment level of expression in that animal (in this case at day −1) to determine the ratio of expression “normalized to pre-treatment.” Expression at a specific time point was then normalized to the D5W control group by dividing the “normalized to pre-treatment” ratio for an individual animal by the mean “normalized to pretreatment” ratio of all mice in the D5W control group.

With “AD05488: RNAi agent duplex: antisense AM07235-AS, sense AM07234-SS (antisense mU*fA*mC*fUmGfAmUfCmAfAmAfUmAfUmGfUmUfGmAfG*mC; sense {NAG37}*[invAb]*mGmCmUmCmAmAmCmAfUfAfUmUmUmGmAmUmCmAmGmUmA*[invAb])” the “Avg Total Chol Normalized to Pre-Treatment and Control” value (from here on “Avg Total Chol Normalized”) (0.05 mg/kg single sc day 1, Day 8) was 0.856, the “Avg Total Chol Normalized” value (0.05 mg/kg single sc day 1, Day 15) was 1.090 and the “Avg Total Chol Normalized” value (0.05 mg/kg single sc day 1, Day 22) was 0.946. The “Avg Total Chol Normalized” value (0.05 mg/kg single sc day 1, Day 29) was 0.915, the “Avg Total Chol Normalized” value (0.1 mg/kg single sc day 1, Day 8) was 0.820 and the “Avg Total Chol Normalized” value (0.1 mg/kg single sc day 1, Day 15) was 0.974. For the same substance, the “Avg Total Chol Normalized” value (0.1 mg/kg single sc day 1, Day 22) was 0.785, the “Avg Total Chol Normalized” value (0.1 mg/kg single sc day 1, Day 29) was 0.945 and the “Avg Total Chol Normalized” value (0.5 mg/kg single sc day 1, Day 8) was 0.740. For the same substance, the “Avg Total Chol Normalized” value (0.5 mg/kg single sc day 1, Day 15) was 0.918, the “Avg Total Chol Normalized” value (0.5 mg/kg single sc day 1, Day 22) was 0.897 and the “Avg Total Chol Normalized” value (0.5 mg/kg single sc day 1, Day 29) was 0.883. For the same substance, the “Avg Total Chol Normalized” value (1.0 mg/kg single sc day 1, Day 8) was 0.610, the “Avg Total Chol Normalized” value (1.0 mg/kg single sc day 1, Day 15) was 0.816 and the “Avg Total Chol Normalized” value (1.0 mg/kg single sc day 1, Day 22) was 0.857. The “Avg Total Chol Normalized” value (1.0 mg/kg single sc day 1, Day 29) was 0.920, the “Avg Total Chol Normalized” value (2.5 mg/kg single sc day 1, Day 8) was 0.647 and the “Avg Total Chol Normalized” value (2.5 mg/kg single sc day 1, Day 15) was 0.832. The “Avg Total Chol Normalized” value (2.5 mg/kg single sc day 1, Day 22) was 0.772, the “Avg Total Chol Normalized” value (2.5 mg/kg single sc day 1, Day 29) was 0.694 and the “Avg Total Chol Normalized” value (5.0 mg/kg single sc day 1, Day 8) was 0.583. The “Avg Total Chol Normalized” value (5.0 mg/kg single sc day 1, Day 15) was 0.787, the “Avg Total Chol Normalized” value (5.0 mg/kg single sc day 1, Day 22) was 0.790 and the “Avg Total Chol Normalized” value (5.0 mg/kg single sc day 1, Day 29) was 0.783.
